Assays:
PCSK9 = PCSK9 protein expression in HepG2 cells, Western blot; type: cell-based, human; conditions: 20 μM, 1, 2, and 3 days
Protocol: (§1) Cells were harvested after 1, 2, and 3 days treatment and western blot analysis was conducted using antibodies directed to LDLR and PCSK9. Chicken anti-LDLR was purchased from Abeam, the mouse anti-PCSK9 was purchased from Cayman Chemicals, and anti-pACC was purchased from Cell Signaling.
(§2) To determine whether the stimulatory effects of statins on LDLR protein expression could be enhanced by some new compounds invented herein, HepG2 cells were untreated or treated with a low dose of rosuvastatin (RSV) at 0.3 and 1 uM concentration in the absence or the presence of Compound 127(+), or treated with low concentrations of Compound 127(+) alone for 2 days. Western blot analysis was conducted to examine LDLR and PCSK9 protein levels. Compound 127(+) is the single enantiomer of compound 127 with a positive optical rotation. […] Furthermore, the inducing effects of RSV on PCSK9 protein levels were anatagonized by compound 127(+).
(§3) Chicken anti-LDLR was purchased from Abeam and the mouse anti-PCSK9 was purchased from Cayman Chemicals. HepG2 cells cultured in 60-mm dishes were incubated overnight in medium containing 0.5% fetal bovine serum prior to the addition of compounds at 20 uM concentration for 1-3 days. Total cell lysate was isolated and 50 μg of protein was separated on SDS-PAGE and transferred to nitrocellulose membrane for immunoblotting with anti-LDLR, anti-PCSK9, and anti-p-ACC.

[1] = test system: acetyl coenzyme A carboxylase (ACC); test: ACC phosphorylation in HepG2 cells, Western blot; type: cell-based, human; conditions: 20 μM, 1, 2, and 3 days (FIG. 12)
Protocol: HepG2 cells were treated with 20 μg/ml14R-(+)-THP for 0.5, 2, or 8 hours. Cells were lysed, and 50 μg protein from each sample was subjected to SDS-PAGE, followed by Western blotting using anti-phosphorylated ACC (Cell Signaling) and subsequently reprobed with antibody against β-actin.
as §1

hyperlipidemic rabbits [2] = test: Lipid lowering effects and blood chemistry in hyperlipidemic rabbits; conditions: for Body weight: after 14 days of drug treatment; for Body weight / ALP / ALT / AST / CK / CREA / GLU / HDL-C / LDH / LDL-C / TC / TG: mean, n = 6; for serum total cholesterol levels, treatment day 0: day 0 (before the drug treatment), n = 6, in mmol/L (unit assumed); for serum total cholesterol levels, treatment day 0 / serum total cholesterol levels, treatment day 4 / serum total cholesterol levels, treatment day 7 / serum total cholesterol levels, treatment day 10 / serum total cholesterol levels, treatment day 14: mean ± SD; for serum total cholesterol levels, treatment day 4: day 4, oral gavage once a day; for serum total cholesterol levels, treatment day 4 / serum total cholesterol levels, treatment day 7: 128(+)/128(−) 30 mg/kg, SMV/ATV 3 mg/kg; for serum total cholesterol levels, treatment day 7: day 7, oral gavage once a day; for serum total cholesterol levels, treatment day 10: day 10, doses increased after day 7 to 60 mg/kg (128(+)/128(−)) and 10 mg/kg (SMV/ATV), in mmol/L (unit assumed); for serum total cholesterol levels, treatment day 14: day 14, doses increased after day 7 to 60 mg/kg (128(+)/128(−)) and 10 mg/kg (SMV/ATV); for ALP / ALT / AST / CK / CREA / GLU / HDL-C / LDH / LDL-C / TC / TG: serum after 14 days of drug treatment
Protocol: (§4) Forty-two male Japanese rabbits were fed the cholesterol enriched rabbit diet for two weeks to induce hypercholesterolemia. […] Serum samples were collected at day 0 (before the drug treatment) and day 7. […] All tested animals were sacrified at the end of a total of 14 days treatment and serum samples were analyzed for TC, LDL-C, TG, and HDL-C. In addition to lipid profiles, a number of biochemical parameters were also analyzed to aseesee the effects of drug treatments on liver function, muscle function, kidney function, and heart function.

LDLR = LDLR protein expression in HepG2 cells, Western blot; type: cell-based, human; conditions: 20 μM, 1, 2, and 3 days
Protocol: as §1, §2, §3

hyperlipidemic rabbits [3] = conditions: rabbit, in vivo
Protocol: as §4

PCSK9 mRNA = PCSK9 mRNA expression in HepG2 cells, quantitative real-time RT-PCR; type: cell-based, human; conditions: indicated concentrations, 24 hours (FIG. 15B)
Protocol: The time-dependent effects of compounds of Formula I, II, III, and IV on the upregulation of LDLR mRNA and the inhibition of PCSK9 mRNA expression were examined (Horton J D, Cohen J C, Hobbs H I T. “Molecular biology of PCSK9: its role in LDL metabolism” TRENDS in Biochemical Sciences 2007; 32:71-77). HepG2 cells were treated with new compounds individually at 20 uM dose for 1 day, 2 day, and 3 days. Total RNA was isolated and 2 μg was used to generate cDNA in a reaction containing random primers and M-MLV at 37° C. for 1 hour in a volume of 25 μl. Real-time PCR was performed on the cDNA using MCEP REALPLEX 2 SYSTEM (Eppendorf) and Universal MasterMix (Applied Biosystems). Human LDLR, PCSK9, and GAPDH Pre-Developed TaqMan Assay Reagents (Applied Biosystems) were used to assess the levels of mRNA expressions in HepG2. The levels of LDLR mRNA or PCSK9 mRNA were normalized to that of GAPDH. Each RNA samples was assayed in triplicate. […]
Total RNA was harvested for quantitative real-time RT-PCR analysis using method described in Examples 16B. […]
The effects of 23 compounds on the mRNA expressions of LDLR and PCSK9 were examined using quantitative real-time RT-PCR assays. […] The fold activity was calculated by dividing mRNA abundance in compound treated cells with that of control.

LDLR mRNA = LDLR mRNA expression in HepG2 cells, quantitative real-time RT-PCR; type: cell-based, human; conditions: indicated concentrations, 24 hours (FIG. 15A)
Protocol: Activities of some compounds of Formulas I, II, III, and IV on LDLR mRNA expression were determined. HepG2 cells were treated with new compounds individually at a dose less than or equal to 10 μM for 24 hours. Total RNA was harvested for quantitative real-time RT-PCR analysis using the method described in Example 16B. […] In these experiments, berberine chloride was included for comparison.
The time-dependent effects of compounds of Formula I, II, III, and IV on the upregulation of LDLR mRNA and the inhibition of PCSK9 mRNA expression were examined (Horton J D, Cohen J C, Hobbs H I T. “Molecular biology of PCSK9: its role in LDL metabolism” TRENDS in Biochemical Sciences 2007; 32:71-77). HepG2 cells were treated with new compounds individually at 20 uM dose for 1 day, 2 day, and 3 days. Total RNA was isolated and 2 μg was used to generate cDNA in a reaction containing random primers and M-MLV at 37° C. for 1 hour in a volume of 25 μl. Real-time PCR was performed on the cDNA using MCEP REALPLEX 2 SYSTEM (Eppendorf) and Universal MasterMix (Applied Biosystems). Human LDLR, PCSK9, and GAPDH Pre-Developed TaqMan Assay Reagents (Applied Biosystems) were used to assess the levels of mRNA expressions in HepG2. The levels of LDLR mRNA or PCSK9 mRNA were normalized to that of GAPDH. Each RNA samples was assayed in triplicate. The abundance of LDLR mRNA or PCSK9 mRNA in untreated cells was defined as 1, and the amounts of LDLR mRNA or PCSK9 from compound-treated cells were plotted relative to that value (FIG. 10). The data shown are mean±s.d.
Total RNA was harvested for quantitative real-time RT-PCR analysis using method described in Examples 16B.
The effects of 23 compounds on the mRNA expressions of LDLR and PCSK9 were examined using quantitative real-time RT-PCR assays. HepG2 cells were treated with various compounds at 10 and 40 uM concentrations for 24 hours. Total RNA was isolated and […] was used to generate cDNA in a reaction containing random primers and M-MLV at 37° C. for 1 h in a volume of 25 μl. Real-time PCR was performed on the cDNA using MCEP REALPLEX 2 SYSTEM (Eppendorf) and Universal MasterMix (Applied Biosystems). Human LDLR, PCSK9, and GAPDH Pre-Developed TaqMan Assay Reagents (Applied Biosystems) were used to assess the levels of mRNA expressions in HepG2. The levels of LDLR and PCSK9 mRNA were normalized to that of GAPDH. Each RNA samples was assayed in duplicate. The fold activity was calculated by dividing mRNA abundance in compound treated cells with that of control.

Structure (SMILES) | expression of PCSK9 (protein) (PCSK9) | phosphorylation of ACC [1] | Body weight (hyperlipidemic rabbits [2]) [kg] | serum total cholesterol levels, treatment day 0 (hyperlipidemic rabbits [2]) | serum total cholesterol levels, treatment day 4 (hyperlipidemic rabbits [2]) | serum total cholesterol levels, treatment day 7 (hyperlipidemic rabbits [2]) | serum total cholesterol levels, treatment day 10 (hyperlipidemic rabbits [2]) | serum total cholesterol levels, treatment day 14 (hyperlipidemic rabbits [2]) | ALP (hyperlipidemic rabbits [2]) [IU/L] | ALT (hyperlipidemic rabbits [2]) [IU/L] | AST (hyperlipidemic rabbits [2]) [IU/L] | CK (hyperlipidemic rabbits [2]) [U/L] | CREA (hyperlipidemic rabbits [2]) [µmol/L] | GLU (hyperlipidemic rabbits [2]) [mmol/L] | HDL-C (hyperlipidemic rabbits [2]) [mmol/L] | LDH (hyperlipidemic rabbits [2]) [IU/L] | LDL-C (hyperlipidemic rabbits [2]) [mmol/L] | TC (hyperlipidemic rabbits [2]) [mmol/L] | TG (hyperlipidemic rabbits [2]) [mmol/L] | LDLR protein levels (LDLR) | also measured
COc1ccc2c(c1)CCN1Cc3c(ccc(OC)c3OS(=O)(=O)c3cccc(F)c3)CC21 (single isomer, unassigned) [128(+)] | strongly inhibited | induced ACC phosphorylation | 2.6 | 28.6 ± 6.7 | 31.9 ± 7.5 | 33.9 ± 7.2 | 33.8 ± 7.8 | 34.2 ± 7.4 | 165.2 | 68.7 | 20.8 | 1172.3 | 97.2 | 7.9 | 3.6 | 47.7 | 29.7 | 34.2 | 1.0 | effectively increased | 
COc1ccc2c(c1)CCN1Cc3c(ccc(OC)c3OS(=O)(=O)c3cccc(F)c3)CC21 (single isomer, unassigned) [128(−)] | strongly inhibited | induced ACC phosphorylation | 2.7 | 28.5 ± 6.3 | 29.9 ± 8.0 | 29.0 ± 7.9 | 27.9 ± 5.2 | 29.7 ± 4.9 | 155.5 | 50.2 | 20.8 | 997.5 | 105.2 | 7.9 | 3.5 | 50.3 | 24.4 | 29.7 | 0.9 | effectively increased | adverse effect / toxicities (hyperlipidemic rabbits [3]): absence of any adverse effect; TC and LDL-C reduction (hyperlipidemic rabbits [2]; 14 days treatment, summary in words): strong TC and LDL-C reduction
COc1cc2c(cc1OC)C1Cc3ccc(OC)c(OS(=O)(=O)c4ccccc4)c3CN1CC2 (centres unmarked) [Compound 91, 2,3,10-trimethoxy-5,6,7,8,13,13a-hexahydroisoquinolino[2,1-b]isoquinolin-9-yl benzenesulfonate] |  |  |  |  |  |  |  |  |  |  |  |  |  |  |  |  |  |  |  |  | PCSK9 mRNA expression (PCSK9 mRNA): inhibits; LDLR mRNA expression (LDLR mRNA): dose-dependently increases
